{"source": "paper PMC10458893", "about": "“Design of Protegrin-1 Analogs with Improved Antibacterial Selectivity” (Pharmaceutics, 2023)", "key": {"P. aeruginosa PAO1": {"tested_on": "P. aeruginosa PAO1", "assay_type": "cell-based, Pseudomonas aeruginosa", "settings": "PAO1, 24 h", "experimental": "(§1) The antimicrobial activity of the peptides was determined using two-fold serial dilutions in sterile 96-well flat-bottom polystyrene microplates (Eppendorf, Hamburg, Germany) (Cat. No. 0030730011), as previously described. The following strains of bacteria were used: E. coli ATCC 25922, E. coli ML35p (ATCC collection), E. coli BW 25113 (Keio collection), Pseudomonas aeruginosa PAO1 (ATCC collection), P. aeruginosa ATCC 27853, Klebsiella pneumoniae ATCC 700603, Staphylococcus aureus 209P (ATCC collection), S. aureus ATCC 29213, and Micrococcus luteus B-1314 (VKM collection). Acinetobacter baumannii (strain XDR CI 2675) was provided by the I.M. Sechenov First Moscow State Medical University hospital. After a 24 h incubation period, the metabolic activity of the bacteria was assessed by adding 20 µL of a redox indicator, resazurin (Sigma-Aldrich, St. Louis, MO, USA), at a concentration of 0.1 mg/mL, to the wells. The plate was then incubated for a further two hours. The minimum inhibitory concentration (MIC) was determined as the lowest concentration of the peptide at which no color change in the resazurin indicator was observed. The results were presented as median values, which were determined based on at least three independent experiments carried out in triplicate."}, "P. aeruginosa ATCC 27853": {"tested_on": "P. aeruginosa ATCC 27853", "assay_type": "cell-based, Pseudomonas aeruginosa", "settings": "ATCC 27853, 24 h", "experimental": "as §1"}, "S. aureus ATCC 29213": {"tested_on": "S. aureus ATCC 29213", "assay_type": "cell-based, Staphylococcus aureus", "settings": "ATCC 29213, 24 h", "experimental": "as §1"}, "S. aureus 209P": {"tested_on": "S. aureus 209P", "assay_type": "cell-based, Staphylococcus aureus", "settings": "24 h", "experimental": "as §1"}, "[1]": {"tested_on": "human keratinocyte cell line (HaCaT)", "assay": "Cytotoxicity MTT assay", "assay_type": "cell-based", "settings": "18 h, 128", "experimental": "In order to evaluate the cytotoxicity of the peptides against a human keratinocyte cell line (HaCaT, Cat. No. 300493) (Cell Lines Service, Köln, Germany), the colorimetric 3-(4,5-dimethylthiazol-2-yl)-2,5-diphenyltetrazolium bromide (MTT) dye reduction assay was performed, as described in a previous publication. Wells containing no peptide were used as a 100% survival control. Each peptide was tested in two separate experiments to ensure the reliability of the results."}, "[2]": {"tested_on": "K. pneumoniae ATCC 700603", "assay_type": "cell-based, Klebsiella pneumoniae", "settings": "ATCC 700603, 24 h", "experimental": "as §1"}, "E. coli BW 25113": {"tested_on": "E. coli BW 25113", "assay_type": "cell-based", "settings": "two-fold serial dilutions, 24 h incubation, resazurin read-out; median of at least three independent experiments in triplicate", "experimental": "as §1"}, "all the test strains": {"tested_on": "all the test strains", "assay_type": "cell-based", "settings": "geometric mean over the 10 test strains", "experimental": "as §1"}, "E. coli ATCC 25922 [3]": {"tested_on": "E. coli ATCC 25922", "assay_type": "cell-based", "settings": "ATCC 25922, 24 h", "experimental": "as §1"}, "[4]": {"tested_on": "Acinetobacter baumannii (strain XDR CI 2675)", "assay_type": "cell-based", "experimental": "as §1"}, "E. coli ML35p": {"tested_on": "E. coli ML35p", "assay_type": "cell-based", "experimental": "as §1"}, "[5]": {"tested_on": "freshly isolated human erythrocytes (hRBCs)", "assay": "Hemolysis assay (hemoglobin release)", "assay_type": "cell-based", "settings": "red cells of human, 64", "text": "To assess the hemolytic activity of the compounds, freshly isolated human erythrocytes (hRBCs) were used according to the methodology described in a previous study. Melittin was used as a positive peptide control that induces significant hemolysis. Isotonic phosphate buffer (PBS) served as a negative control, while 0.1% Triton X-100 solution was used as a control for complete hemolysis."}, "M. luteus B-1314": {"tested_on": "M. luteus B-1314", "assay_type": "cell-based, Micrococcus luteus", "settings": "B-1314, 24 h", "experimental": "as §1"}, "E. coli ATCC 25922 [6]": {"tested_on": "E. coli ATCC 25922", "assay": "Systemic septicemia infection mice model", "assay_type": "in vivo", "settings": "BALB/c mice n = 5, i.p. E. coli ATCC 25922 10^6 CFU with mucin, 7 days", "experimental": "Experiments were performed with male and female 8–10-week-old BALB/c mice (22–24 g, “Andreevka” laboratory animal nursery FMBA, Russia) according to the previously described method. Briefly, a total of 3 groups of 5 mice per group were infected by intraperitoneal (i.p.) injection of the bacterial inoculum (E. coli ATCC 25922), 10^6 colony forming units (CFU) per animal, in the presence of mucin. All the animals received two i.p. injections: 1 h and 4 h after bacterial challenge. The first group received ciprofloxacin (Sigma-Aldrich, St. Louis, MO, USA) as a positive control at a dose of 10 mg/kg per injection. The second group received peptide [V16R] at a dose of 5 mg/kg per injection. The third group received PBS as a vehicle control. Animals were monitored for 7 days post-infection. All the surviving mice were euthanized by CO2 asphyxiation. The spleen was aseptically removed, homogenized, serially diluted, and plated on Endo agar to detect CFU in a sample."}}, "note": "Where two headings read alike, the source gives them in different places. Positions of bridges follow the written chain, without caps; N, C: chain ends. Residues, ends and D or L forms follow the SMILES beside them.", "data": [{"compound": "CC(C)C[C@H](NC(=O)[C@H](CCCNC(=N)N)NC(=O)CNC(=O)CNC(=O)[C@@H](N)CCCNC(=N)N)C(=O)N[C@H]1CSSC[C@@H](C(=O)N[C@@H](C)C(=O)NCC(=O)N[C@@H](CCCNC(=N)N)C(=O)O)NC(=O)[C@H](C(C)C)NC(=O)[C@@H]2CSSC[C@H](NC(=O)[C@H](Cc3ccc(O)cc3)NC1=O)C(=O)N[C@@H](CCCNC(=N)N)C(=O)N[C@@H](CCCNC(=N)N)C(=O)N[C@@H](CCCNC(=N)N)C(=O)N[C@@H](Cc1ccccc1)C(=O)N2", "note": "[[V16A]] (H-RGGRLCYCRRRFCVCAGR-OH; disulfide 6-15, 8-13; N-terminus and C-terminus assumed)", "values": [{"measurement": "MIC, P. aeruginosa PAO1", "setting": "P. aeruginosa PAO1", "value": 0.25, "unit": "µM"}, {"measurement": "MIC, P. aeruginosa ATCC 27853", "setting": "P. aeruginosa ATCC 27853", "value": 0.5, "unit": "µM"}, {"measurement": "MIC, S. aureus ATCC 29213", "setting": "S. aureus ATCC 29213", "value": 1, "unit": "µM"}, {"measurement": "MIC, S. aureus 209P", "setting": "S. aureus 209P", "value": 1, "unit": "µM"}, {"measurement": "Cell Viability, % (128 μM)", "setting": "[1]", "value": "8.0 (± 5.35) %"}, {"measurement": "MIC, K. pneumoniae ATCC 700603", "setting": "[2]", "value": 1, "unit": "µM"}, {"measurement": "MIC, E. coli BW 25113", "setting": "E. coli BW 25113", "value": 0.25, "unit": "µM"}, {"measurement": "MIC (GM), geometric mean of the peptide's MICs against all the test strains", "setting": "all the test strains", "value": 0.4, "unit": "µM"}, {"measurement": "MIC, E. coli ATCC 25922", "setting": "E. coli ATCC 25922 [3]", "value": 0.5, "unit": "µM"}, {"measurement": "MIC, A. baumannii", "setting": "[4]; strain XDR CI 2675, 24 h", "value": 0.125, "unit": "µM"}, {"measurement": "MIC, E. coli ML35p", "setting": "E. coli ML35p; ML35p, 24 h", "value": 0.125, "unit": "µM"}, {"measurement": "Hemolytic activity, % (64 μM)", "setting": "[5]", "value": "47.8 (±11.96) %"}, {"measurement": "MIC, M. luteus B-1314", "setting": "M. luteus B-1314", "value": 0.5, "unit": "µM"}]}, {"compound": "CC(C)C[C@H](NC(=O)[C@H](CCCNC(=N)N)NC(=O)CNC(=O)CNC(=O)[C@@H](N)CCCNC(=N)N)C(=O)N[C@H]1CSSC[C@@H](C(=O)N[C@@H](CCCNC(=N)N)C(=O)NCC(=O)N[C@@H](CCCNC(=N)N)C(=O)O)NC(=O)[C@H](C(C)C)NC(=O)[C@@H]2CSSC[C@H](NC(=O)[C@H](Cc3ccc(O)cc3)NC1=O)C(=O)N[C@@H](CCCNC(=N)N)C(=O)N[C@@H](CCCNC(=N)N)C(=O)N[C@@H](CCCNC(=N)N)C(=O)N[C@@H](Cc1ccccc1)C(=O)N2", "note": "[[V16R]] (H-RGGRLCYCRRRFCVCRGR-OH; disulfide 6-15, 8-13)", "values": [{"measurement": "MIC, P. aeruginosa PAO1", "setting": "P. aeruginosa PAO1", "value": 1, "unit": "µM"}, {"measurement": "MIC, P. aeruginosa ATCC 27853", "setting": "P. aeruginosa ATCC 27853", "value": 0.5, "unit": "µM"}, {"measurement": "MIC, S. aureus ATCC 29213", "setting": "S. aureus ATCC 29213", "value": 4, "unit": "µM"}, {"measurement": "MIC, S. aureus 209P", "setting": "S. aureus 209P", "value": 4, "unit": "µM"}, {"measurement": "Cell Viability, % (128 μM)", "setting": "[1]", "value": "80.0 (± 8.62) %"}, {"measurement": "MIC, K. pneumoniae ATCC 700603", "setting": "[2]", "value": 4, "unit": "µM"}, {"measurement": "Deaths of mice", "setting": "E. coli ATCC 25922 [6]; 5 mg/kg i.p. at 1 h and 4 h", "value": "two out of five"}, {"measurement": "Therapeutic efficacy (survival)", "setting": "E. coli ATCC 25922 [6]; 5 mg/kg i.p. at 1 h and 4 h, chloride form", "value": 60, "unit": "%"}, {"measurement": "MIC, E. coli BW 25113", "setting": "E. coli BW 25113", "value": 0.25, "unit": "µM"}, {"measurement": "MIC (GM), geometric mean of the peptide's MICs against all the test strains", "setting": "all the test strains", "value": 0.8, "unit": "µM"}, {"measurement": "MIC, E. coli ATCC 25922", "setting": "E. coli ATCC 25922 [3]", "value": 0.5, "unit": "µM"}, {"measurement": "MIC, A. baumannii", "setting": "[4]; strain XDR CI 2675, 24 h", "value": 0.125, "unit": "µM"}, {"measurement": "MIC, E. coli ML35p", "setting": "E. coli ML35p; ML35p, 24 h", "value": 0.25, "unit": "µM"}, {"measurement": "Hemolytic activity, % (64 μM)", "setting": "[5]", "value": "2.8 (±0.2) %"}, {"measurement": "MIC, M. luteus B-1314", "setting": "M. luteus B-1314", "value": 1, "unit": "µM"}]}, {"compound": "CC(C)C[C@H](NC(=O)[C@H](CCCNC(=N)N)NC(=O)CNC(=O)CNC(=O)[C@@H](N)CCCNC(=N)N)C(=O)N[C@H]1CSSC[C@@H](C(=O)N[C@H](C(=O)NCC(=O)N[C@@H](CCCNC(=N)N)C(=O)O)C(C)C)NC(=O)[C@H](C(C)C)NC(=O)[C@@H]2CSSC[C@H](NC(=O)[C@H](CCCNC(=N)N)NC1=O)C(=O)N[C@@H](CCCNC(=N)N)C(=O)N[C@@H](CCCNC(=N)N)C(=O)N[C@@H](CCCNC(=N)N)C(=O)N[C@@H](Cc1ccccc1)C(=O)N2", "note": "[[Y7R]] (H-RGGRLCRCRRRFCVCVGR-OH; disulfide 6-15, 8-13; N-terminus and C-terminus assumed)", "values": [{"measurement": "MIC, P. aeruginosa PAO1", "setting": "P. aeruginosa PAO1", "value": 8, "unit": "µM"}, {"measurement": "MIC, P. aeruginosa ATCC 27853", "setting": "P. aeruginosa ATCC 27853", "value": 4, "unit": "µM"}, {"measurement": "MIC, S. aureus ATCC 29213", "setting": "S. aureus ATCC 29213", "value": 16, "unit": "µM"}, {"measurement": "MIC, S. aureus 209P", "setting": "S. aureus 209P", "value": 16, "unit": "µM"}, {"measurement": "Cell Viability, % (128 μM)", "setting": "[1]", "value": "67.6 (± 8.68) %"}, {"measurement": "MIC, K. pneumoniae ATCC 700603", "setting": "[2]", "value": 8, "unit": "µM"}, {"measurement": "MIC, E. coli BW 25113", "setting": "E. coli BW 25113", "value": 0.5, "unit": "µM"}, {"measurement": "MIC (GM), geometric mean of the peptide's MICs against all the test strains", "setting": "all the test strains", "value": 2.5, "unit": "µM"}, {"measurement": "MIC, E. coli ATCC 25922", "setting": "E. coli ATCC 25922 [3]", "value": 0.5, "unit": "µM"}, {"measurement": "MIC, A. baumannii", "setting": "[4]; strain XDR CI 2675, two-fold serial dilutions, 24 h incubation, resazurin read-out, median of at least three independent experiments in triplicate", "value": 0.5, "unit": "µM"}, {"measurement": "MIC, E. coli ML35p", "setting": "E. coli ML35p; two-fold serial dilutions, 24 h incubation, resazurin read-out, median of at least three independent experiments in triplicate", "value": 0.5, "unit": "µM"}, {"measurement": "Hemolytic activity, % (64 μM)", "setting": "[5]", "value": "2.1 (±0.53) %"}, {"measurement": "MIC, M. luteus B-1314", "setting": "M. luteus B-1314", "value": 2, "unit": "µM"}]}, {"compound": "O=C(O)c1cn(C2CC2)c2cc(N3CCNCC3)c(F)cc2c1=O", "note": "[ciprofloxacin, reference compound]", "values": [{"measurement": "Survival of mice", "setting": "E. coli ATCC 25922 [6]; 10 mg/kg i.p. at 1 h and 4 h", "value": "survival of all mice"}]}]}
